Converted amounts (≈) assume the structure as drawn. Like-named read-outs stand apart in the source and are kept apart here.
How the values were obtained:
[1] = healthy volunteer, oral 100 mg 14C radiolabeled sorafenib; cited from earlier work
[2] = Solubility of sorafenib in different organic solvents; type: physicochemical; settings: for solubility at 30 min / solubility at 24 h: organic solvent, 37 °C, organic solvent or mixture, thermodynamic from solid
[3] = renal cell carcinoma patients; cited from earlier work
[4] = Stability of sorafenib in different organic solvents (related substances by HPLC); type: physicochemical
[5] = cited from earlier work
[6] = Solubility test of solid dispersions (pH 1.0 hydrochloric acid, pH 6.8 phosphate buffer, FaSSGF, FaSSIF); type: physicochemical; settings: main drug:carrier 1:3; for Solubility: pH 1.0 hydrochloric acid solution, 37° C., listed as SLFN
Protocol: An appropriate amount of solid dispersion (SD) was added to a pH 1.0 hydrochloric acid solution and a pH 6.8 phosphate buffer solution, while keeping the SD in excess, and shaken at 37° C. in a shaker at 300 rpm.

[7] = Stability of solid dispersions at high temperature of 60° C. (related substances by HPLC); type: physicochemical
Protocol: The SD prepared above was sealed in an aluminum foil bag, placed in a high temperature of 60° C. for investigation for 10 days and 30 days, and related substances were detected by HPLC method.

[8] = acetone-ethanol 1:2, standing 30 min
[9] = acetone-ethanol 1:2, standing 24 h
[10] = dichloromethane-acetone 3:1, standing 30 min
[11] = dichloromethane-acetone 3:1, standing 24 h
[12] = methanol-dichloromethane 1:2, standing 30 min
[13] = methanol-dichloromethane 1:2, standing 24 h
[14] = methanol-dichloromethane 1:3, standing 30 min
[15] = methanol-dichloromethane 1:3, standing 24 h
[16] = methanol-dichloromethane 1:4, standing 30 min
[17] = methanol-dichloromethane 1:4, standing 24 h

Compound: CNC(=O)c1cc(Oc2ccc(NC(=O)Nc3ccc(Cl)c(C(F)(F)F)c3)cc2)ccn1 [sorafenib, 4-{4-[3-(4-chloro-3-trifluoromethyl-phenyl)acylurea]-phenoxy}-pyridine-2-carboxylic acid methylamine]
- administered dose excreted through feces [1]: 77%
- prototype drug excreted through feces [1]: above 51%
- Solubility ([2]; acetone-ethanol 1:2, 30 min, 37° C.): 18.51 mg/mL (≈ 39.8 mM)
- Solubility ([2]; acetone-ethanol 1:2, 24 h, 37° C.): 18.48 mg/mL (≈ 39.8 mM)
- Solubility (visual inspection) ([2]; acetone-ethanol 1:3 and 1:5, 30 min): Less API dissolved by visual
- Solubility (visual inspection) ([2]; dichloromethane-acetone 1:1 and 2:1, 30 min): Less API dissolved by visual
- Solubility ([2]; methanol-dichloromethane 1:1, 30 min, 37° C.): 14.28 mg/mL (≈ 30.7 mM)
- solubility at 30 min ([2]; dichloromethane-acetone 3:1, 30 min, 37° C.): 3.6 mg/mL (≈ 7.74 mM)
- solubility at 24 h ([2]; dichloromethane-acetone 3:1, 24 h, 37° C.): 4.04 mg/mL (≈ 8.69 mM)
- solubility at 30 min ([2]; isopropanol, 30 min): 2.91 mg/mL (≈ 6.26 mM)
- solubility at 24 h ([2]; isopropanol, 24 h): 2.81 mg/mL (≈ 6.05 mM)
- solubility at 30 min ([2]; methanol-dichloromethane 1:0.5 (v/v), 30 min, 37° C.): 8.34 mg/mL (≈ 17.9 mM)
- solubility at 24 h ([2]; methanol-dichloromethane 1:0.5 (v/v), 24 h, 37° C.): 19.2 mg/mL (≈ 41.2 mM)
- solubility at 24 h ([2]; methanol-dichloromethane 1:1, 24 h, 37° C.): 24.2 mg/mL (≈ 52.1 mM)
- solubility at 30 min ([2]; methanol-dichloromethane 1:2, 30 min, 37° C.): 20.9 mg/mL (≈ 45 mM)
- solubility at 24 h ([2]; methanol-dichloromethane 1:2, 24 h, 37° C.): 36.2 mg/mL (≈ 77.8 mM)
- solubility at 30 min ([2]; methanol-dichloromethane 1:3, 30 min, 37° C.): 36.4 mg/mL (≈ 78.2 mM)
- solubility at 24 h ([2]; methanol-dichloromethane 1:3, 24 h, 37° C.): 36.4 mg/mL (≈ 78.4 mM)
- solubility at 30 min ([2]; methanol-dichloromethane 1:4, 30 min, 37° C.): 31.3 mg/mL (≈ 67.4 mM)
- solubility at 24 h ([2]; methanol-dichloromethane 1:4, 24 h, 37° C.): 36.3 mg/mL (≈ 78.1 mM)
- blood concentration of patients with serious adverse reactions [3]: more than 10,000 ng/ml
- incidence of diarrhea [3]: 76.5%
- incidence of fatigue [3]: 55.32%
- incidence of hand-foot syndrome [3]: 68.99%
- Related substances RRT 0.08 ([4]; API, no solvent): 0.008%
- Related substances RRT 0.30 ([4]; API, no solvent): 0.029%
- Related substances RRT 0.40 ([4]; API, no solvent): 0.006%
- Related substances RRT 0.55 ([4]; API, no solvent): 0.028%
- Related substances RRT 0.92 ([4]; API, no solvent): 0.054%
- Related substances RRT 1.00 ([4]; API, no solvent): 99.864%
- Related substances RRT 0.05 [4, 8]: 4.314%
- Related substances RRT 0.08 [4, 8]: 0.011%
- Related substances RRT 0.30 [4, 8]: 0.029%
- Related substances RRT 0.40 [4, 8]: 0.008%
- Related substances RRT 0.55 [4, 8]: 0.025%
- Related substances RRT 0.92 [4, 8]: 0.047%
- Related substances RRT 1.00 [4, 8]: 95.562%
- Related substances RRT 0.05 [4, 9]: 3.946%
- Related substances RRT 0.08 [4, 9]: 0.010%
- Related substances RRT 0.30 [4, 9]: 0.033%
- Related substances RRT 0.40 [4, 9]: 0.007%
- Related substances RRT 0.55 [4, 9]: 0.020%
- Related substances RRT 0.92 [4, 9]: 0.035%
- Related substances RRT 1.00 [4, 9]: 95.893%
- Related substances RRT 0.05 [4, 10]: 12.979%
- Related substances RRT 0.08 [4, 10]: 2.491%
- Related substances RRT 0.30 [4, 10]: 0.020%
- Related substances RRT 0.35 [4, 10]: 0.282%
- Related substances RRT 0.92 [4, 10]: 0.039%
- Related substances RRT 1.00 [4, 10]: 84.196%
- Related substances RRT 0.05 [4, 11]: 14.191%
- Related substances RRT 1.00 [4, 11]: 85.157%
- Related substances RRT 0.03 ([4]; isopropanol, standing 30 min): 0.161%
- Related substances RRT 1.00 ([4]; isopropanol, standing 30 min): 99.839%
- Related substances RRT 1.00 ([4]; isopropanol, standing 24 h): 99.365%
- Related substances RRT 0.08 [4, 12]: 0.011%
- Related substances RRT 0.30 [4, 12]: 0.030%
- Related substances RRT 0.40 [4, 12]: 0.008%
- Related substances RRT 0.55 [4, 12]: 0.031%
- Related substances RRT 0.92 [4, 12]: 0.037%
- Related substances RRT 1.00 [4, 12]: 99.870%
- Related substances RRT 0.08 [4, 13]: 0.013%
- Related substances RRT 0.30 [4, 13]: 0.035%
- Related substances RRT 0.40 [4, 13]: 0.009%
- Related substances RRT 0.55 [4, 13]: 0.028%
- Related substances RRT 0.92 [4, 13]: 0.049%
- Related substances RRT 1.00 [4, 13]: 99.853%
- Related substances RRT 0.08 [4, 14]: 0.015%
- Related substances RRT 0.30 [4, 14]: 0.029%
- Related substances RRT 0.40 [4, 14]: 0.006%
- Related substances RRT 0.55 [4, 14]: 0.026%
- Related substances RRT 0.92 [4, 14]: 0.050%
- Related substances RRT 1.00 [4, 14]: 99.861%
- Related substances RRT 0.08 [4, 15]: 0.012%
- Related substances RRT 0.30 [4, 15]: 0.035%
- Related substances RRT 0.40 [4, 15]: 0.009%
- Related substances RRT 0.55 [4, 15]: 0.025%
- Related substances RRT 0.92 [4, 15]: 0.037%
- Related substances RRT 1.00 [4, 15]: 99.872%
- Related substances RRT 0.08 [4, 16]: 0.013%
- Related substances RRT 0.30 [4, 16]: 0.028%
- Related substances RRT 0.40 [4, 16]: 0.007%
- Related substances RRT 0.55 [4, 16]: 0.024%
- Related substances RRT 0.92 [4, 16]: 0.034%
- Related substances RRT 1.00 [4, 16]: 99.884%
- Related substances RRT 0.08 [4, 17]: 0.013%
- Related substances RRT 0.30 [4, 17]: 0.028%
- Related substances RRT 0.40 [4, 17]: 0.008%
- Related substances RRT 0.55 [4, 17]: 0.032%
- Related substances RRT 0.92 [4, 17]: 0.045%
- Related substances RRT 1.00 [4, 17]: 99.862%
- change in related substances ([4]; methanol-dichloromethane (1:3), 30 min and 24 h): no significant change in related substances
- Solubility ([5]; pH1): 0.0034 mg/mL (≈ 0.00731 mM)
- Solubility ([5]; pH4.5): 0.00013 mg/mL (≈ 0.00028 mM)
- Solubility ([6]; 0.5 h): <0.09 µg/mL
- Solubility ([6]; 2 h): <0.09 µg/mL
- Solubility ([6]; 4 h): <0.09 µg/mL
- solubility at 0.5 h ([6]; phosphate buffer, 37 °C, pH 6.8, aqueous buffer, thermodynamic from solid, pH 6.8 phosphate buffer solution, 0.5 h): < 0.09 µg/mL
- solubility at 2 h ([6]; phosphate buffer, 37 °C, pH 6.8, aqueous buffer, thermodynamic from solid, pH 6.8 phosphate buffer solution, 2 h): < 0.09 µg/mL
- solubility at 4 h ([6]; phosphate buffer, 37 °C, pH 6.8, aqueous buffer, thermodynamic from solid, pH 6.8 phosphate buffer solution, 4 h): < 0.09 µg/mL
- Related substances: CTF-aniline ([7]; 0 day): Not detected
- Related substances: Maximum single impurity ([7]; 0 day): 0.03%
- Related substances: Total impurity ([7]; 0 day): 0.09%
- Related substances: CTF-aniline ([7]; 10 days): Not detected
- Related substances: Maximum single impurity ([7]; 10 days): 0.04%
- Related substances: Total impurity ([7]; 10 days): 0.10%
- Related substances: CTF-aniline ([7]; 30 days): Not detected
- Related substances: Maximum single impurity ([7]; 30 days): 0.05%
- Related substances: Total impurity ([7]; 30 days): 0.10%
